The values below come from patent publication US20210153502A1, “PLANT GROWTH AID AND PLANT GROWING METHOD” (priority 2018, published 2021).

For series [1] the following is noted: octanol/water, 25° C.; cited from earlier work.
In series [2] the test system is PR1 protein. Kind of series: Evaluation of disease resistance: PR1 protein content of sprayed leaf by western blotting, tomato. To be noted: seedling sheet Z-1, band density relative to thiazinyl solution of same period. Type of series: in vivo. The procedure:
(§1) The results are shown in the rows of “cultivation in paddy field” of Table 3 (rice) and Table 4 (tomato).
(§2) A 1/5000-are pot was filled with 2.9 kg of paddy field soil (clay loam). Ten young seedlings having 2 to 3 leaves grown by the above method were planted in a depth of 2 cm and watered, and the seedlings were placed in water at a depth of 3 cm. The seedlings were left to stand at 25° C. for a predetermined period shown in Table 3 or Table 4 (days (day) from moving to paddy field until evaluation). Each leaf sprayed with the nanoparticle (P) dispersion (or thiazinyl solution) was cut off, immersed in ion exchange water in a container for one minute, and taken out from the container. The liquid in the container was replaced by fresh ion exchange water. The leaf was further subjected to an operation of immersing in the fresh ion exchange water in the container for one minute and taking out of the container three times, whereby the nanoparticles (P) (or thiazinyl) attached to the leaf surface were removed. Then, proteins were extracted from the above leaf using 8-min Plant Tissue Total Protein Extraction Kit (available from Cosmo Bio Co., Ltd.), and the PR1 protein content, which is a marker of disease resistance, in the extracted proteins was determined as follows. The total protein content was quantified with Micro BCATM protein assay kit (available from THERMO Fisher Scientific). […]
(§3) The test was performed five times for each seedling. The PR1 protein content was evaluated by western blotting (including electrophoresis, transferring, and color development) specifically described later. […]
(§4) After a PR1 protein band was detected in the transferring membrane after the operations (1) to (3), the density of the band was quantified with Image J (available from National Institutes of Health, USA). In Examples 11 to 14, the quantified density of the band in each of Examples 11 to 14 was divided by the density of the band in Comparative Example 3. […]
(In general: In western blotting, separated proteins are transferred to a membrane and probed.)

The subject of series [3] is Hinohikari (rice). Kind of series: Evaluation of crop injury after treatment with nanoparticles (P) or thiazinyl, rice. Further details: key: 0: Harmless (healthy); 1: minimally damaged; 2: slightly damaged; 3: moderately damaged; 4: significantly damaged; 5: complete leaf firing. To be noted: seedling sheet Z-1, 100 μL spray, thiazinyl 100 ppm. It is filed as in vivo. The procedure:
as §1
(§5) Young seedlings were treated with the nanoparticles (P) or thiazinyl in the same manner as in the method described in <Evaluation of disease resistance>. Then, the degree of crop injury on the leaf surface was evaluated after a predetermined period of time (days (day) shown in Tables 3 and 4, from moving to the paddy field until evaluation). Specifically, crop injury was visually evaluated with the naked eye according to the following criteria.

In series [4] the test system is PR1 protein. Kind of series: Evaluation of disease resistance: PR1 protein content of sprayed leaf by western blotting, rice. It is filed as in vivo. To be noted: seedling sheet Z-1, band density relative to thiazinyl solution of same period. Here is the method:
as §1, §2, §3, §4

In series [5] the test system is House Momotaro (tomato). Kind of series: Aerial part growing ratio after treatment with nanoparticles (P) or thiazinyl, tomato. It is filed as in vivo. The note with it: seedling sheet Z-1, relative to thiazinyl solution of same period. The procedure: as §1
(§6) Young seedlings were treated with the nanoparticles (P) or thiazinyl in the same manner as in the method described in the <Evaluation of disease resistance>, and the aerial part growing state was evaluated after a predetermined period (shown in Tables 3 and 4, days (day) from moving to the paddy field until evaluation). Specifically, the aerial part growing state was evaluated by measuring the length of each part. The aerial part length in each example treated with the nanoparticles (P) for a predetermined period was divided by the aerial part length in the comparative example treated with a thiazinyl solution for the same period. The calculated value was regarded as the aerial part growing ratio.

Series [6] deals with House Momotaro (tomato). Kind of series: Evaluation of crop injury after treatment with nanoparticles (P) or thiazinyl, tomato. Further details: key: 0: Harmless (healthy); 1: minimally damaged; 2: slightly damaged; 3: moderately damaged; 4: significantly damaged; 5: complete leaf firing. Type of series: in vivo. To be noted: seedling sheet Z-1, 100 μL spray, thiazinyl 100 ppm. The procedure: as §1, §5

Series [7] deals with Hinohikari (rice). Briefly: Aerial part growing ratio after treatment with nanoparticles (P) or thiazinyl, rice. Type of series: in vivo. To be noted: seedling sheet Z-1, relative to thiazinyl solution of same period. Here is the method:
as §1, §6

Where [8] appears, read: 1 day from moving to paddy field.
The mark [9] stands for this setting: 3 days from moving to paddy field.
[10] abbreviates: 7 days from moving to paddy field.

With `Cc1c(F)c(F)c(COC(=O)[C@@H]2[C@H](/C=C(\Cl)C(F)(F)F)C2(C)C)c(F)c1F` (racemic) [tefluthrin], the “Log Pow” value in series [1] was 6.5.

Take `Cc1nn(C)c(Cl)c1C(=O)Nc1cccc2c1C(C)OC2(C)C` (centres unmarked) [furametpyr]: the “Log Pow” value in series [1] is given as 2.36.

On to `O=C(NC(=O)c1c(F)cccc1F)Nc1cc(Cl)c(OC(F)(F)C(F)F)c(Cl)c1` [hexaflumuron], for which the “Log Pow” value in series [1] is reported as 4.68.

Take `N#Cc1ccccc1NC(=O)c1snc(Cl)c1Cl` [isotianil]: the “Log Pow” value in series [1] is reported as 2.96.

`CS/C(C)=N\OC(=O)N(C)SN(C)C(=O)O/N=C(\C)SC` [thiodicarb]: the “Log Pow” value in series [1] was 1.62.

`COC(=O)NC(=S)Nc1ccccc1NC(=S)NC(=O)OC` [thiophanate-methyl]: the “Log Pow” value in series [1] is 1.5.

With `CCCSP(=O)(OCC)Oc1cnn(-c2ccc(Cl)cc2)c1` (centres unmarked) [pyraclofos], the “Log Pow” value in series [1] is 3.77.

In the case of `Cc1ccc(NC(=O)c2snnc2C)cc1Cl` [thiazinyl], the “PR1 protein mass ratio” value in the series with PR1 protein [2] (1 day), in the series with PR1 protein [2] (3 days), in the series with PR1 protein [2] (7 days), with PR1 protein [4] (1 day), in the series on PR1 protein [4] (3 days) and in the series with PR1 protein [4] (7 days) was 1.0 throughout. In addition, the Crop injury is given as 3 with Hinohikari (rice) [3] (setting [8]); 4 with Hinohikari (rice) [3] (setting [9]); 4 in the series on Hinohikari (rice) [3] (setting [10]); 2 with House Momotaro (tomato) [6] (setting [8]); 3 with House Momotaro (tomato) [6] (setting [9]); 3 in the series with House Momotaro (tomato) [6] (setting [10]). The “Aerial part growth ratio” value in the series on House Momotaro (tomato) [5] (1 day), in the series with House Momotaro (tomato) [5] (3 days), in the series with House Momotaro (tomato) [5] (7 days), in the series with Hinohikari (rice) [7] (1 day), in the series on Hinohikari (rice) [7] (3 days) and in the series on Hinohikari (rice) [7] (7 days) was 1.0 in each case. The “Log Pow” value in series [1] was 3.68.

For the compound `CCCCC(C#N)(Cn1cncn1)c1ccc(Cl)cc1` (centres unmarked) [myclobutanil], the “Log Pow” value in series [1] is 2.9.

As for `N#CC(CCc1ccc(Cl)cc1)(Cn1cncn1)c1ccccc1` (centres unmarked) [fenbuconazole], the “Log Pow” value in series [1] is listed as 3.23.

For `COP(=S)(OC)Oc1ccc([N+](=O)[O-])c(C)c1` [fenitrothion], in series [1], the “Log Pow” value is on record as 3.43.

As to `COc1nn(CSP(=S)(OC)OC)c(=O)s1` [methidathion], in series [1], the “Log Pow” value is given as 2.2.

As for `CC1(C)[C@H](C(=O)O[C@H](C#N)c2cccc(Oc3ccccc3)c2)[C@@H]1/C=C\C(=O)OC(C(F)(F)F)C(F)(F)F` [acrinathrin], in series [1], the “Log Pow” value is given as 5.25.

Take `N#Cc1c(Cl)c(Cl)c(Cl)c(C#N)c1Cl` [TPN, chlorothalonil]: the “Log Pow” value in series [1] is 2.92.

On to `C=CCCCOC(=O)C(CC)N(Cc1ccco1)C(=O)n1ccnc1` (centres unmarked) [pefurazoate], for which, in series [1], the “Log Pow” value is on record as 3.0.

In the case of `CC(C)OP(=O)(OC(C)C)SCc1ccccc1` [iprobenfos], the “Log Pow” value in series [1] is 3.37.

Take `O=C(NC(=O)c1c(F)cccc1F)Nc1ccc(Cl)c(Oc2ncc(C(F)(F)F)cc2Cl)c1` [fluazuron]: in series [1], the “Log Pow” value was 5.1.

`O=C1CCc2cccc3c2N1CC3` [pyroquilone]: the “Log Pow” value in series [1] is 1.42.

With `COCC(=O)N(c1c(C)cccc1C)C(C)C(=O)OC` (centres unmarked) [metalaxyl], the “Log Pow” value in series [1] is 1.75.

Regarding `CCOc1ccc(NC(=O)OC(C)C)cc1OCC` [diethofencarb], the “Log Pow” value in series [1] is 3.02.

With `O=C1OCc2c(Cl)c(Cl)c(Cl)c(Cl)c21` [fthalide], the “Log Pow” value in series [1] was 3.01.

For `O=C1C2CC=CCC2C(=O)N1SC(Cl)(Cl)Cl` (centres unmarked) [captan], in series [1], the “Log Pow” value is listed as 2.8.

Take `C/C(=N/Nc1nc(C)cc(C)n1)c1ccccc1C` [ferimzone]: the “Log Pow” value in series [1] is on record as 2.89.

For `CC(C)Oc1cccc(NC(=O)c2ccccc2C(F)(F)F)c1` [flutolanil], the “Log Pow” value in series [1] was 3.17.

For the compound `COC(=O)c1c(C(F)F)nc(C(F)(F)F)c(C2=NCCS2)c1CC(C)C` [thiazopyr], the “Log Pow” value in series [1] is reported as 3.89.

Turning to `CCOP(=S)(OCC)Oc1cc(C)nc(C(C)C)n1` [diazinon], the “Log Pow” value in series [1] was 3.3.

Turning to `O=[N+]([O-])c1ccc(NS(=O)(=O)c2ccc(Cl)c(C(F)(F)F)c2)c(Cl)c1` [flusulfamide], in series [1], the “Log Pow” value is 2.8.

With `CSC(=O)c1cccc2nnsc12` [acibenzolar-S-methyl], the “Log Pow” value in series [1] is listed as 3.1.

In the case of `O=C(NC(=O)c1c(F)cccc1F)Nc1cc(Cl)c(OC(F)(F)C(F)C(F)(F)F)cc1Cl` (centres unmarked) [lufenuron], the “Log Pow” value in series [1] is 5.12.

Take `CCOP(=O)(SC(C)CC)N1CCSC1=O` (centres unmarked) [fosthiazate]: the “Log Pow” value in series [1] is 1.68.

Consider `CC(C)[C@H](Nc1ccc(C(F)(F)F)cc1Cl)C(=O)OC(C#N)c1cccc(Oc2ccccc2)c1` (some centres unmarked) [fluvalinate], for which the “Log Pow” value in series [1] is recorded as 2.9.

In the case of `CN(C)C(=S)SSC(=S)N(C)C` [thiuram], the “Log Pow” value in series [1] is listed as 1.73.
